This passage reports TGI results from PubChem BioAssay (NCI).

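Briefly, cells in 96-well plates were exposed to five compound concentrations for 48 h, and endpoints were estimated by linear interpolation. TGI denotes the concentration required for complete inhibition of growth.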 Where a SMILES comes first, the peptide text is derived from it. [ ]: non-standard residue; d: D form. The star is where a group is joined. ξ: configuration not given here. dThr(3ξ) = CC(O)[C@@H](N)C(=O)O; dNMeL = CN[C@H](CC(C)C)C(=O)O; OBn = c1ccc(CO*)cc1; ξLac = CC(O)C(=O)O

Common to all, as to assay: inhibition of tumour cell growth, NCI panel, 48 h
The test system of test [1] is A498 renal.
Test [2] concerns HCC-2998 colon.
In test [3] the test system is HOP-92 NSCLC.
The subject of test [4] is HT29 colon.
In test [5] the test system is LOX IMVI melanoma.
The subject of test [6] is M14 melanoma.
For test [7], the system named is MDA-MB-231 breast.
In test [8] the test system is MDA-MB-435.
The test system of test [9] is MOLT-4 leukemia.
For test [10], the system named is NCI-H460 lung.
The subject of test [11] is NCI-H522 lung.
Test [12] deals with OVCAR-5 ovarian.
Test [13] concerns SF-268 CNS.
Test [14] concerns SF-295 CNS.
Test [15] deals with SK-OV-3 ovarian.
The test system of test [16] is SNB-19 CNS.
Test [17] concerns SW-620 colon.
The subject of test [18] is T-47D breast.
In test [19] the test system is TK-10 renal.
Test [20] has as its system UO-31 renal.

On to `Cc1cccc(N=Nc2c(C)nn(C(=O)CC(=O)Nc3ccccc3)c2C)c1`, for which the TGI in test [1], in test [2], in test [3], in test [4], in test [5] and in test [6] was above 100 µM each time. The TGI in test [7], in [8], in test [9], in [10], in test [11] and in test [12] was above 100 µM throughout. In addition, the TGI in test [13], in test [14], in test [15], in [16], in [17] and in [18] was above 100 µM in each case. In addition, the TGI in [19] and in [20] was above 100 µM in each case.

As to `O=C1OCC2(CO1)CC1C=CC2C1` (stereo not given), the TGI in test [1], in test [2], in test [3], in [4], in [5] and in test [6] was above 100 µM throughout. Also, the TGI in test [7], in [8], in test [9], in [10], in test [11] and in [12] was above 100 µM throughout. Besides, the TGI in test [13], in test [14], in [15], in test [16], in test [17] and in test [18] was above 100 µM in each case. The TGI in [19] and in [20] was above 100 µM in each case.

Regarding `CC(=O)OC(C)[C@@H](NC(=O)[C@@H](CC(C)C)N(C)C(=O)[C@@H]1CCCN1C(=O)C(C)O)C(=O)OCc1ccccc1` (stereo not given in full) (H-[ξLac]P[dNMeL][dThr(3ξ)](Ac)-OBn), the TGI in test [1], in test [2], in [3], in test [4], in test [5] and in [6] was above 100 µM each time. Moreover, the TGI in test [7], in test [8], in test [9], in [10], in [11] and in test [12] was above 100 µM in each case. For the same molecule, the TGI in test [13], in test [14], in [15], in test [16], in test [17] and in [18] was above 100 µM throughout. For the same molecule, the TGI in test [19] and in test [20] was above 100 µM in each case.

`O=c1[nH]c(-c2cccc(F)c2)nc2ccccc12`: the TGI in test [1] was above 73.2 µM; in [2], above 100 µM; in test [3], above 72 µM; in [4] it was above 100 µM; in test [5], above 100 µM; in test [6] it was above 100 µM. Also, the TGI in [7] was above 65.9 µM; in [8], above 100 µM; in [9], above 100 µM; in [10] it was above 100 µM; in [11] it was above 100 µM; in test [12], above 100 µM. In addition, the TGI in test [13] is above 100 µM; in test [14], above 72.7 µM; in test [15], above 61.3 µM; in [16], 47.2 µM; in test [17] it was above 100 µM; in test [18], above 100 µM. Moreover, the values for the TGI in test [19] and in test [20] were 58.9 µM and above 67.9 µM, respectively.

In the case of `CC1(C)CC[C@]2(C(=O)O)CC[C@]3(C)C(=CC[C@@H]4[C@@]5(C)C[C@H](O)[C@H](O)[C@@](C)(CO)C5=CC[C@]43C)[C@@H]2C1`, the TGI in test [1] is above 100 µM; in test [2], 92.6 µM; in test [3], above 100 µM; in test [4], above 100 µM; in test [5], above 100 µM; in [6], above 100 µM. The TGI is above 100 µM in test [7]; above 100 µM in [8]; above 100 µM in [9]; 72.2 µM in [10]; above 100 µM in test [11]; above 100 µM in [12]. For the same molecule, the TGI in [13], in test [14], in test [15], in test [16], in [17] and in test [18] was above 100 µM throughout. Further, the TGI in test [19] and in [20] was above 100 µM throughout.

Consider `NC1CC(=O)c2c(Cl)sc(Cl)c21` (stereo not given), for which the TGI turned out to be 31.1 µM in [1]; 22.7 µM in test [2]; 2.91 µM in test [3]; 14.1 µM in test [4]; 4.81 µM in [5]; 35.4 µM in test [6]. Further, the TGI in test [7] is 6.39 µM; in test [8], 15.5 µM; in test [9], 9.37 µM; in test [10], 33.7 µM; in test [11] it was 2.89 µM; in test [12], 42.9 µM. In addition, the TGI in [13] amounted to 67.4 µM; in [14], 31.3 µM; in test [15], 26.4 µM; in [16] it was 42.2 µM; in test [17], 3.73 µM; in test [18], 4.96 µM. For the same molecule, the TGI in test [19] was 6.26 µM; in test [20], 20.3 µM.
